Assay [1] relates to human mammary tumoral lineage T-47D. As to the kind of experiment: Clonogenic test (soft agar), growth of cellular colonies. It counts as cell-based. The conditions noted are these: T-47D; for activity at 0.1 µM: 10^-7 M; for activity at 0.001 µM: 10^-9 M; for effect on growth of cellular colonies (in words): soft agar; for activity at 0.01 µM: 10^-8 M. The essentials: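 Colony counts (clones over 100 μm², MTT-stained for at least 3 h) are expressed as a percentage of the untreated control. T-47D cells grew anchorage-independently between a 0.5% agar base and a 0.3% agar top layer. Cultures were incubated for 21 days after treatment at 37 °C with 5% CO2.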

Assay [2] deals with Gal4-RARβ. As to the kind of experiment: Transactivation, chimerical receptor Gal4-RARβ (transitory transfection of HeLa). It counts as cell-based. The following applies: 100% = TTNPB 10^-8 M.
Assay [3] concerns RARα-ERcassette. As to the kind of experiment: Transactivation, chimerical receptor RARα-ERcassette (HeLa). It counts as cell-based. The following applies: TTNPB 10^-8 M = 100. In outline:
(§1)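 Read-out: ERE-driven luciferase in HeLa cells, normalised to a co-transfected CMV-β-galactosidase control. Receptor is RAR with its C domain swapped for the oestrogen receptor DNA-binding domain, keeping AF-1/AF-2 cooperation. Effector exposure 16 h, beginning 24 h post-transfection.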

Assay [4] relates to RARβ-ERcassette. As to the kind of experiment: Transactivation, chimerical receptor RARβ-ERcassette (HeLa). In kind it is cell-based. The following applies: TTNPB 10^-8 M = 100. The essentials:
as §1

Assay [5] deals with RARγ-ERcassette. As to the kind of experiment: Transactivation, chimerical receptor RARγ-ERcassette (HeLa). In kind it is cell-based. The conditions noted are these: TTNPB 10^-8 M = 100. The essentials:
as §1

Assay [6] has as its system AP-1, MTLN lineage (MCF-7). Kind of assay: Anti-AP-1 effect, MTLN lineage activated by TPA. It counts as cell-based, human. The following applies: for inhibition at 1 µM / inhibition at 0.1 µM: Homo sapiens, MCF7, cells activated by 10^-7 M TPA, range of several experiments; for inhibition at 1 µM: 10^-6 M; for inhibition at 0.1 µM: 10^-7 M, read-out: anti-AP-1 effect, inhibition; for anti-AP-1 effect (in words): TPA-activated MTLN cells. In outline: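 Percent inhibition of AP-1-driven luciferase after basal activity deduction, expressed as a range across repeat experiments. Cells: MTLN, an MCF-7 line stably transfected with p(TRE)3-tk-Luc and stimulated with 10^-7 M TPA; tests in duplicate.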

Assay [7] has as its system RAR-ERcassettes (RARα, RARβ, RARγ). Kind of assay: Chimerical receptors RAR-ERcassettes, overall profile. It counts as cell-based. The essentials:
as §1

Assay [8] relates to A549 human pulmonary cancer cells. Kind of assay: MTT test, proliferation of A549. It counts as cell-based. The following applies: for activity at 100 µM / activity at 1 µM / activity at 0.01 µM: Homo sapiens, 72 h, control = 100%, read-out: level of proliferation; for activity at 100 µM: A549, 10^-4 M; for activity at 1 µM: A549, 10^-6 M; for activity at 0.01 µM: A549, 10^-8 M.

[9] abbreviates: Homo sapiens, T47D, 504 h, 21 days, control = 100%, read-out: mean number of cellular colonies in relation to control.

Usually inhibition stands for the drop in the measured response relative to a control, in per cent.

Entries after “also recorded” stand apart in the source; their conditions may differ.

With `C/C(=C/c1ccc2c(c1)C(C)(C)CCC2(C)C)c1ccc(C(=O)O)nc1` [CB16279, (Z) 5-[1-(5,6,7,8-tetrahydro-5,5,8,8-tetramethyl-2-naphthalenyl)-2-propenyl]pyridinyl-2-carboxylic acid], the activity at 0.1 µM in assay [1] (setting [9]) stood at 102 ± 3.4%. Also, the activity at 0.001 µM in assay [1] (setting [9]) is 110 ± 1.5%. The “effect on growth of cellular colonies (in words)” value (shortened to “effect on growth”) in assay [1] is “does not induce any significant modification in the growth of the cellular colonies”. The “GAL4-RAR RARβ transactivation” value in assay [2] (10^-6 M) is reported as 47%. For the same compound, the figures for the “RAR-ERcassette RARα transactivation” value in assay [3] (10^-6 M) and in assay [3] (10^-7 M) were 60% and 6%, respectively. The “RAR-ERcassette RARβ transactivation” value in assay [4] (10^-6 M) came to 118%; in assay [4] (10^-7 M), 60%. In addition, the “RAR-ERcassette RARγ transactivation” value is 71% in assay [5] (10^-6 M) and 15% in assay [5] (10^-7 M). The inhibition at 1 µM in assay [6] fell in the range of 23 to 26%. Moreover, the “RAR-ERcassette profile (in words)” value in assay [7] is recorded as “induce a transactivation mediated by the three receptors”.
In the case of `C/C(=C/c1ccc2c(c1)C(C)(C)CCC2(C)C)c1ccc(C(=O)O)cc1` [CB28628, reference compound], in assay [8], the activity at 100 µM was found to be 12.4%. Also, the activity at 1 µM in assay [8] was determined as 93.4%. The activity at 0.01 µM in assay [8] turned out to be 109%; in assay [1] (setting [9]), 97.6%. For the same compound, in assay [1] (setting [9]), the activity at 0.1 µM was 21.4%. Besides, in assay [1] (setting [9]), the activity at 0.001 µM was 89.2%. Besides, the “effect on growth” value in assay [1] is “strongly and significantly inhibits the growth of the cellular colonies at the concentration of 10^-7 M but very rapidly loses its activity beyond the concentration of 10^-8 M”. Moreover, the “GAL4-RAR RARβ transactivation” value in assay [2] (10^-7 M) came out at 102%. Further, the “RAR-ERcassette RARα transactivation” value in assay [3] (10^-6 M) was found to be 179%; in assay [3] (10^-7 M), 95%; in assay [3] (10^-8 M), 35%. Besides, the “RAR-ERcassette RARβ transactivation” value in assay [4] (10^-6 M) was determined as 183%; in assay [4] (10^-7 M) it was 115%; in assay [4] (10^-8 M), 88%. Moreover, the “RAR-ERcassette RARγ transactivation” value was 92% in assay [5] (10^-6 M), 87% in assay [5] (10^-7 M) and 55% in assay [5] (10^-8 M). The same compound had an inhibition at 1 µM in assay [6] of 58%. Besides, in assay [6], the inhibition at 0.1 µM came out at 40%. In assay [6], the “anti-AP-1 effect (in words)” value was “exhibits a strong anti-AP-1 effect on the MCF-7 cells”. In assay [7], the “RAR-ERcassette profile (in words)” value was “complete agonist for RARγ-ERcassetteand induce an over-activation of RARα-ERcassette and RARβ-ERcassette at 1 μM”.
Consider `CC1(C)CCC(C)(C)c2cc(/C=C(\c3ccc(C(=O)O)cc3)C(F)(F)F)ccc21` [CB36493, (E) 4-[1-trifluoromethyl-2-(5,6,7,8-tetrahydro-5,5,8,8-tetramethyl-2-naphthalenyl)-1-ethenyl]benzoic acid], for which, in assay [8], the activity at 100 µM was 10.4%. Further, the activity at 1 µM in assay [8] turned out to be 93.7%. Further, the activity at 0.01 µM in assay [8] is 98.5%; in assay [1] (setting [9]) it was 17.4 ± 2%. Further, the activity at 0.001 µM in assay [1] (setting [9]) came to 24.8 ± 0.5%. In addition, the activity at 0.0001 µM in assay [1] (Homo sapiens, T47D, 504 h, 10^-10 M, 21 days, control = 100%, read-out: mean number of cellular colonies in relation to control) turned out to be 35.8 ± 3.2%. For the same compound, the “effect on growth” value in assay [1] was “as active as the reference products CB13407 (9-cis RA) and LGD1069”. Besides, the “GAL4-RAR RARβ transactivation” value in assay [2] (10^-6 M) is recorded as 44%. Besides, the “RAR-ERcassette RARα transactivation” value in assay [3] (10^-6 M) is 91%; in assay [3] (10^-7 M), 15%; in assay [3] (10^-8 M), 1%. Besides, the “RAR-ERcassette RARβ transactivation” value in assay [4] (10^-6 M) is given as 205%; in assay [4] (10^-7 M), 34%; in assay [4] (10^-8 M), 0%. Also, the “RAR-ERcassette RARγ transactivation” value in assay [5] (10^-6 M) is 26%; in assay [5] (10^-7 M) it was 5%; in assay [5] (10^-8 M), 0%. In addition, in assay [6], the inhibition at 1 µM is 38 to 46%. Also, the inhibition at 0.1 µM in assay [6] amounted to 26%. Further, the “anti-AP-1 effect (in words)” value in assay [6] is listed as “exert an inhibitor effect comparable to that of the effect of CB28628”. Also, the “RAR-ERcassette profile (in words)” value in assay [7] is given as “induce a transactivation mediated by the three receptors”.
For `C/C(=C/c1ccc2c(c1)C(C)(C)CCC2(C)C)c1ccc(C(=O)O)cn1` [CB38416, (Z) 2-[1-(5,6,7,8-tetrahydro-5,5,8,8-tetramethyl-2-naphthalenyl)-2-propenyl]pyridinyl-5-carboxylic acid], the activity at 100 µM in assay [8] came to 109%. Also, the activity at 1 µM in assay [8] turned out to be 105%. Moreover, the activity at 0.01 µM in assay [8] was 126%; in assay [1] (setting [9]), 15.3 ± 1.7%. The activity at 0.1 µM in assay [1] (setting [9]) stood at 11.6 ± 1.9%. In assay [1] (setting [9]), the activity at 0.001 µM amounted to 20 ± 0.2%. Also, in assay [1], the “effect on growth” value is “as active as the reference products CB13407 (9-cis RA) and LGD1069”. Besides, the “GAL4-RAR RARβ transactivation” value in assay [2] (10^-6 M) turned out to be 51%. Further, the “RAR-ERcassette RARα transactivation” value in assay [3] (10^-6 M) was determined as 65%; in assay [3] (10^-7 M), 7%; in assay [3] (10^-8 M), 0%. For the same compound, the “RAR-ERcassette RARβ transactivation” value in assay [4] (10^-6 M) is listed as 198%; in assay [4] (10^-7 M) it was 57%; in assay [4] (10^-8 M), 10%. Moreover, the “RAR-ERcassette RARγ transactivation” value is on record as 62% in assay [5] (10^-6 M), 14% in assay [5] (10^-7 M) and 4% in assay [5] (10^-8 M). The compound also returned an inhibition at 1 µM in assay [6] of 21 to 25%. Also, the inhibition at 0.1 µM in assay [6] fell in the range of 7 to 14%. Also, in assay [7], the “RAR-ERcassette profile (in words)” value is recorded as “induce a transactivation mediated by the three receptors”.
As to `CC1(C)CCC(C)(C)c2cc(/C=C(\c3ccc(-c4nnn[nH]4)cc3)C(F)(F)F)ccc21` [CB77402, (E) 5-[4-[1-trifluoromethyl-2-(5,6,7,8-tetrahydro-5,5,8,8-tetramethyl-2-naphthalenyl)-1-ethenyl]phenyl]-1H-tetrazole], the activity at 100 µM in assay [8] amounted to 10.7%. Moreover, in assay [8], the activity at 1 µM worked out at 86%. In assay [8], the activity at 0.01 µM was determined as 93.1%. In addition, the “effect on cellular increase, A549 (in words)” value in assay [8] (MTT test) is listed as “show activity on the increase of these two lineages”. Moreover, the “GAL4-RAR RARβ transactivation” value in assay [2] (10^-6 M) is 0%. Also, the “RAR-ERcassette RARα transactivation” value in assay [3] (10^-6 M) worked out at 8%; in assay [3] (10^-7 M), 1%; in assay [3] (10^-8 M), 0%. For the same compound, the results for the “RAR-ERcassette RARβ transactivation” value in assay [4] (10^-6 M), in assay [4] (10^-7 M) and in assay [4] (10^-8 M) were 37%, 31% and 0%, respectively. Besides, the “RAR-ERcassette RARγ transactivation” value in assay [5] (10^-6 M) stood at 8%; in assay [5] (10^-7 M) it was 0%; in assay [5] (10^-8 M), 0%. In assay [6], this compound returned an inhibition at 1 µM of 30 to 33%. Moreover, the inhibition at 0.1 µM in assay [6] lay in the range of 21 to 23%. In addition, the “anti-AP-1 effect (in words)” value in assay [6] is listed as “anti-AP-1 molecules through RXR; also recorded: additive nature of the anti-AP-1 inhibitor effect”. Moreover, the “RAR-ERcassette profile (in words)” value in assay [7] is “do not permit transactivation mediated by RARα-ERcassette and RARγ-cassette. However, a partial transactivation of RARβ-ERcassette is observed; also recorded: with a specific RAR agonist permits an over-activation of the effect of the RAR molecule alone for the three RAR-ERcassette receptors”.
